Data set [1] relates to hypercholesterolemic rat models. As to the kind of experiment: Cholesterol lowering activity in hypercholesterolemic rat models. The format is in vivo. Particulars: hypercholesterolemic male Sprague Dawley rats, oral, 3 mg/kg/day, serum. How it is done:
• ii) Cholesterol lowering activity in hypercholesterolemic rat models
Male Sprague Dawley rats stock bred in Zydus animal house were maintained under 12 hour light and dark cycle at 25±1° C. Rats of 100-150 g body weight range were used for the experiment. Animals were made hypercholesterolemic by feeding 1% cholesterol and 0.5% sodium cholate mixed with standard laboratory chow (NIN, Hyderabad, India) and water ad libitum for 5 days. The animals were maintained on the same diet throughout the experiment [Petit D., Bonnefis M. T., Rey C and Infante R., Effects of ciprofibrate on liver lipids and lipoprotein synthesis in normal and hyperlipidemic rats, Atherosclerosis, 74, 215-225 (1988)].
The test compounds were administered orally at a dose 0.03 to 50 mg/kg/day for 4 days, after suspending it in 0.25% CMC or dissolving it in water when compound is water-soluble. Control group was treated with vehicle alone (0.25% of Carboxymethylcellulose; dose 10 ml/kg).
The blood samples were collected in fed state on 0th and 1 hour after drug administration on 6th day of the treatment. The blood was collected from the retro-orbital sinus through non-heparinised capillary and the serum samples were analyzed for triglyceride and total cholesterol using commercial kits (Zydus-Cadila, Pathline, Ahmedabad, India). LDL and HDL by commercial kits (point Scientific, USA). LDL and VLDL cholesterol were calculated from the data obtained for total cholesterol, HDL and triglyceride.
The reduction in VLDL cholesterol is calculated according to the formula.
VLDL cholesterol in mg/dl=Total cholesterol−HDL cholesterol−LDL cholesterol

The next data set deals with C57BL/KsJ-db/db mice. The data set is described as follows: Serum glucose lowering activity in db/db mice models. It counts as in vivo. To be noted: male C57BL/KsJ-db/db mice, oral gavage, 3 mg/kg/day, 6 days, one hour after dosing on 6th day. How it is done:
• iii) Serum glucose lowering activity in db/db mice models
Homozygous animal C57BL/KsJ-db/db mice are obese, hyperglycemic, hyperinsulinemic and insulin resistant (J. Clin. Invest., 85, 962-967, 1990), whereas heterozygous are lean and normoglycemic. The homozygous animals very closely mimic the human type II diabetes when blood sugar levels are not sufficiently controlled. Since this type of model resembles human type II diabetes mellitus, the compounds of the invention were tested for their antidiabetic activity in this model.
Male C57 BL/KsJ-db/db mice of 8 to 14 weeks age, having body weight range of 40 to 60 grams, procured from the Jackson Laboratory, USA, were used in the experiment.
Test compounds were suspended on 0.25% carboxymethyl cellulose or dissolved in water when the compound is water soluble and administered to test group containing 6 animals at a dose of 0.001 mg to 50 mg/kg through oral gavage daily for 6 days. The control group received vehicle (dose 10 ml/kg). On the 6th day, one hour after the drug dosing, blood was collected from retro-orbital sinus and the serum was analyzed for glucose and triglycerides were measured using commercial kits (Zydus-Cadila, Pathline, Ahmedabad, India). The serum glucose and triglyceride lowering activities of the test compound was calculated according of the formula: […]

The next data set deals with Swiss albino mice. The data set is described as follows: Serum triglyceride and total cholesterol lowering activity in Swiss albino mice. The format is in vivo. To be noted: male Swiss albino mice, oral, 3 mg/kg/day, 6 days, fed state 1 hour after dosing on 6th day. Here is the method:
Male Swiss albino mice (SAM) were bred in Zydus animal house. All these animals were maintained under 12 hour light and dark cycle at 25±1° C. Animals were given standard laboratory chow (NIN, Hyderabad, India) and water ad libitum. SAM of 20-30 g body weight range were used.
The test compounds were administered orally to Swiss albino mice at 0.001 to 50 mg/kg/day dose for 6 days. The compound was administered after suspending it in 0.25% CMC or dissolving it in water, when compound is water-soluble. Control mice were treated with vehicle (0.25% of Carboxymethylcellulose; dose 10 ml/kg).
The blood samples were collected on 0th day and in fed state 1 hour after drug administration on 6th day of the treatment. The blood was collected in non heparinised capillary and the serum was analyzed for triglyceride and total cholesterol (Wieland, O. Methods of Enzymatic analysis. Bergermeyer, H., O., Ed., 1963. 211-214; Trinder, P. Ann. Clin. Biochem. 1969. 6: 24-27). Measurement of serum triglyceride and total cholesterol was done using commercial kits (Zydus-Cadila, Pathline, Ahmedabad, India).
Percentage reduction in triglycerides/total cholesterol were calculated according to the formula: […]

Usually melting point stands for the temperature, or range, at which the solid turns liquid.

Structures can show the parent of a compound that is named as a salt.

`CCO[C@H](CN)Cc1ccc(OCc2nc(-c3ccccc3)oc2C)cc1.O=C(O)C(=O)O`: the melting point was found to be 135 °C. Same read-out and setting: in the case of `CCO[C@H](CN)Cc1ccc(OCCc2nc(-c3ccccc3)oc2C)cc1` (as salt: bisulphate) [Compound 167, Bisulphate Salt of 2S-Ethoxy-3-{4-[2-(5-methyl-2-phenyl-oxazol-4-yl)-ethoxy]-phenyl}-propyl amine] it was 175 °C.

Consider `CCO[C@@H](Cc1ccc(OCc2nc(-c3cccs3)oc2C)cc1)C(=O)O` [Compound 27, (2S)-Ethoxy-3-[4-(5-methyl-2-thiophen-2-yl-oxazol-4-ylmethoxy)-phenyl]-propanoic acid], for which the “Total cholesterol reduction (%)” value in data set [1] is 44%.

As to `CCO[C@H](CO)Cc1ccc(OCCc2nc(-c3ccccc3)oc2C)cc1` [Compound 64, (2S)-Ethoxy-3-{4-[2-(5-methyl-2-phenyl-oxazol-4-yl)-ethoxy]-phenyl}-propan-1-ol], in the data set with C57BL/KsJ-db/db mice, the “Plasma TG reduction (%)” value amounted to 74% and the “Serum Glucose reduction (%)” value came to 56%.

As for `CCOC[C@H](Cc1ccc(OCCc2nc(-c3ccccc3)oc2C)cc1)OCC` [Compound 84, 1-Ethoxy-(2S)-ethoxy-3-[4-{2-(5-methyl-2-phenyl-oxazol-4-yl)-ethoxy}-phenyl]-propane], in the data set on C57BL/KsJ-db/db mice, the “Plasma TG reduction (%)” value is given as 47% and the “Serum Glucose reduction (%)” value amounted to 47%. Regarding `CCO[C@H](COC(=O)CBr)Cc1ccc(OCCc2nc(-c3ccccc3)oc2C)cc1` [Compound 90, (2S)-Ethoxy-3-{4-[2-(5-methyl-2-phenyl-oxazol-4-yl)-ethoxy]-phenyl}-propyl bromo-acetate], the “Total cholesterol reduction (%)” value in data set [1] was 56%. On to `CCO[C@H](CN)Cc1ccc(OCCc2nc(-c3ccccc3)oc2C)cc1` [Compound 134, (2S)-Ethoxy-3-{4-[2-(5-methyl-2-phenyl-oxazol-4-yl)-ethoxy]-phenyl}-propylamine], for which, in the data set with Swiss albino mice, the “% Triglyceride lowering” value was 54%.

For `CCO[C@H](CN)Cc1ccc(OCc2nc(-c3ccccc3)oc2C)cc1` [Compound 141, (2S)-Ethoxy-3-{4-[5-methyl-2-phenyl-oxazol-4-ylmethoxy]-phenyl}-propylamine], the “Total cholesterol reduction (%)” value in data set [1] was found to be 61%.

Values taken from patent publication US20090275565A1, “Substituted aralkyl derivatives” (CADILA HEALTHCARE LIMITED, priority 2002, published 2009).
